# Data from patent publication US20220323433A2, “CLINICAL REGIMEN FOR TREATING MYELODYSPLASTIC SYNDROME WITH PHOSPHATASE INHIBITOR” (H. Lee Moffitt Cancer Center and Research Institute, Inc., priority 2016, published 2022).
# Read-outs that look alike come from different tables or passages of the source.
# Legend:
# [1] = tested on: solid tumors; settings: human, in vivo
# [2] = Solubility and stability of LB-100 solution; format: physicochemical; settings: for stability: formulated in monosodium glutamate
# From the text: LB-100 is a water soluble enantiomeric zwitterion provided as a sterile solution for intravenous administration.
# Phosphate buffered saline (PBS) was used as the vehicle for LB-100 administration in preclinical efficacy studies and sodium bicarbonate 4.2% for injection was used as the vehicle for GLP toxicity studies.
# [3] = tested on: male and female Sprague Dawley rats; assay: GLP repeat-dose study in rats, daily IV slow bolus for 5 days; settings: for C0 / AUClast: 0.75 mg/kg/day
# [4] = tested on: male Fischer rats; assay: Non-GLP dose ranging toxicology study in rats, daily IV infusion for 4 days; settings: for MTD: male Fischer rats, IV daily for 4 days
# Description: In a non-GLP dose ranging study in male Fischer rats, LB-100 was administered by daily intravenous (IV) infusion at 0.5, 0.75 and 1.5 mg/kg/day for 4 consecutive days.
# [5] = tested on: beagle dogs; assay: Non-GLP dose ranging study in dogs, IV every 4 days x 4 doses; format: in vivo, dog
# From the text: Single cell necrosis was observed throughout the gastrointestinal tract.
# [6] = tested on: male and female beagle dogs
# Description: In the GLP repeat dose dog study, LB-100 was administered by intravenous injection (slow bolus push) at dose levels of 0.15, 0.30, and 0.75 mg/kg daily for 5 consecutive days. […] The dosage level was reduced to 0.50 mg/kg/day for the 4th and 5th doses (study Days 3 and 4).
# Multilead (I, II, III, aVR, aVL, aVF, and V2) ECGs were recorded for all animals prior to randomization (Day−8) and for all surviving animals on Day 4 (recorded approximately 2 to 4 hours following dose administration) and Day 27.
# Blood pressure (systolic, diastolic, and mean arterial pressure) data were recorded for all animals once during the pretest period (Day−8) and for all surviving animals on study Day 4 (recorded approximately 2 to 4 hours following dose administration) and Day 27.
# [7] = tested on: del(5q) MDS; settings: cited from earlier work; for median overall survival: long term follow up
# [8] = tested on: del(5q) clones; settings: del(5q) patients; cited from earlier work
# [9] = MDS-003 multicenter Phase 2 trial
smiles,measurement,setting,value
"CN1CCN(C(=O)C2C(C(=O)O)[C@H]3CC[C@@H]2O3)CC1 (mixture of isomers) [LB-100, 3-{4methylpiperazine-carbonyl}-7-oxalobicyclo[2.2.1]heptane-2-carboxylic acid]",cardiac or myelosuppressive toxicities,[1],no cardiac or myelosuppressive toxicities observed
same,dose limiting toxicities,[1],no dose limiting toxicities
same,plasma concentrations of LB-100,[1],greater than 1 μM
same,tolerability,[1],well tolerated
same,water solubility,[2],water soluble
same,stability,"[2]; pH 10.5, at refrigerated temperatures",at least 8 hours
same,stability,"[2]; pH 10.5, at −20° C.",stable for months
same,racemization of separated enantiomers,[2]; in solution,racemize rapidly in solution
same,C0,"[3]; females, study Day 4",2347 ng/mL
same,AUClast,"[3]; males, study Day 4",596 ng·h/mL
same,C0,"[3]; males, study Day 4",1804 ng/mL
same,heart findings (epicardium and subepicardium of the atrium),"[3]; 0.5, 0.75, 1.25 mg/kg/day males and 1.25 mg/kg/day females",Minimal to mild subacute inflammation
same,kidney findings,[3]; 0.75 and 1.25 mg/kg/day group males and females,"adverse, test article-related nephrosis of the kidneys"
same,severely toxic dose in 10% of the animals (STD 10),"[3]; Sprague Dawley rats, IV slow bolus daily for 5 days",0.75 mg/kg/day
same,reversibility of effects on urinalysis parameters,[3]; all treatment groups,reversible
same,AUClast,"[3]; female, Sprague Dawley, rat, in vivo, iv",691 ng·h/mL
same,nephrosis severity,[4]; 0.75 mg/kg/day,mild
same,no-observed-adverse-effect-level (NOAEL),"[4]; 0.5, 0.75 and 1.5 mg/kg/day IV for 4 days",not established
same,heart toxicity,[4]; 0.75 and 1.5 mg/kg/day groups,epicardial hyperplasia with inflammation primarily on the epicardium of the atria
same,unscheduled deaths,"[4]; any of the treatment groups (0.5, 0.75, 1.5 mg/kg/day)",no unscheduled deaths
same,MTD,[4],0.75 mg/kg/day
same,MTD,[4]; surface area equivalent,about 4.5 mg/m^2
same,dose-limiting toxicities,"[4]; rat, in vivo, iv","Kidney, heart, femoral bone, liver and urinary bladder toxicity"
same,survival,"[5]; 0.1, 0.25, 0.5, 1.0 mg/kg",no LB-100-related effects on survival
same,no observed-effect level (NOEL),"[5]; beagle dogs, IV every 4 days x 4 doses",0.25 mg/kg
same,signs of toxicity,"[5]; dog, in vivo, 1 mg/kg",almost no signs of toxicity
same,tolerability,[6]; 0.15 mg/kg/day,well tolerated
same,test article-related lethality,"[6]; 0.75 mg/kg/day group, prior to fourth dose",2 of 10
same,Highest Non-Severely Toxic Dose (HNSTD),"[6]; beagle dogs, IV daily for 5 consecutive days",0.15 mg/kg
same,ECGs,"[6]; dog, in vivo",within normal limits
same,blood pressure,"[6]; dog, in vivo",unaffected
same,hematology or coagulation parameters,"[6]; dog, in vivo",no residual effects
same,urinalysis parameters,"[6]; dog, in vivo",no test article-related changes
Nc1cccc2c1CN(C1CCC(=O)NC1=O)C2=O (stereo not shown) [lenalidomide],patients achieving a complete response (CR),"[7]; MDS-003, cytogenetic response",45%
same,patients with at least a partial cytogenetic response,[7]; MDS-003,73%
same,median TI duration,[7]; [9],2.2 years
same,patients achieved transfusion independence (TI),[7]; [9],67%
same,patients who develop resistance,[7]; after 2-3 years of treatment,approximately 50%
same,median overall survival,[7]; cytogenetic non-responders,3.1 years
same,median overall survival,[7]; cytogenetic responders,4.9 years
same,median overall survival,[7]; non-responders (TI),2 years
same,median overall survival,[7]; patients who reached TI,4.3 years
same,median duration of TI,"[7]; patients with PP2Acα suppression from baseline, not reached",≥ 1507 days
same,median duration of responses,[7]; patients with del5q MDS,2.5 years
same,median duration of TI,"[7]; patients without PP2Acα suppression (P=0.006, log rank)",679 days
same,apoptosis and cell cycle arrest,[8],induces apoptosis and cell cycle arrest
